We go through one molecule from patent publication US20250120951A1, “CLEMIZOLE FORMULATION” (EPYGENIX THERAPEUTICS, INC., priority 2021, published 2025).

The term solubility denotes the dissolved amount per volume that the medium holds.

Values joined by “and” are separate entries in the source; they are usually repeats but may differ in a detail not shown here. Equal entries are not always repeated. Structures can show the parent of a compound that is named as a salt. Where two headings read alike, the source gives them in different places.

A short description of data set [1]: Solubility testing for clemizole HCl in solvent systems (Example 1). Format: physicochemical. The method, then: Solubility testing for clemizole HCl in a compatible solvent system was conducted to identify a buffer system that solubilized the required concentration of clemizole HCl without any precipitation. […] Actual clemizole HCl solubility values in each of the solvent systems are described in Table 1.

Data set [2] can be described thus: Excipient compatibility: clemizole HCl assay and total related substances, 14 days at 50° C. (Example 4). Format: physicochemical. The method, then:
In an example, various excipients were examined at the 14-day time point (50° C.) to guide the decision on the choice of excipients to be used during formulation development. Table 5 below illustrates the stability of clemizole HCl at day 14 following incubation in the various formulations listed.
However, due to the poor solubility of ethyl parahydroxybenzoate, either a solubilizer such as PEG400, or a soluble form of ethyl parahydroxybenzoate, such as the sodium salt, would be required. Glycerol was compatible with clemizole HCl and may be used to improve the taste formulation.

On to `Clc1ccc(Cn2c(CN3CCCC3)nc3ccccc32)cc1` [clemizole HCl], for which the solubility is 11 mg/mL in data set [1] (0.1 M HCl, simulated gastric fluid, 0.1M HCl 100% w/w, read-out: Actual Solubility); 36 mg/mL in data set [1] (Solutol HS15 solution, 40 °C, aqueous with cosolvent or surfactant or cyclodextrin, 20% w/w solution of Solutol HS15 at 40° C., read-out: solubility of clemizole HCl); 12.7 mg/mL in data set [1] (citrate buffer, pH 4.5, aqueous buffer, pH 4.5 Citrate Buffer 100% w/w, read-out: Actual Solubility); 9.29 mg/mL in data set [1] (citrate buffer, pH 4.5, aqueous with cosolvent or surfactant or cyclodextrin, pH 4.5 Citrate Buffer 79.5 / PEG400 20.0 / Sodium ascorbate 0.5 % w/w, read-out: Actual Solubility); 13.5 mg/mL in data set [1] (citrate buffer, pH 4.5, aqueous with cosolvent or surfactant or cyclodextrin, pH 4.5 Citrate Buffer 80.0 / Glycerol 20.0 % w/w, read-out: Actual Solubility); 11.4 mg/mL in data set [1] (citrate buffer, pH 4.5, aqueous with cosolvent or surfactant or cyclodextrin, pH 4.5 Citrate Buffer 80.0 / Propylene glycol 20.0 % w/w, read-out: Actual Solubility). Besides, the solubility in data set [1] (citrate buffer, pH 4.5, aqueous with cosolvent or surfactant or cyclodextrin, pH 4.5 Citrate Buffer 90.0 / 2-Hydroxypropyl-β-cyclodextrin 10.0 % w/w, read-out: Actual Solubility) stood at 29.9 mg/mL; in data set [1] (citrate buffer, pH 4.5, aqueous with cosolvent or surfactant or cyclodextrin, pH 4.5 Citrate Buffer 94.5 / Polysorbate 20 5.0 / Sodium ascorbate 0.5 % w/w, read-out: Actual Solubility) it was 21.4 mg/mL; in data set [1] (citrate buffer, pH 4.5, aqueous with cosolvent or surfactant or cyclodextrin, pH 4.5 Citrate Buffer 94.5 / Polysorbate 80 5.0 / Sodium ascorbate 0.5 % w/w, read-out: Actual Solubility), 24.6 mg/mL; in data set [1] (citrate buffer, pH 4.5, aqueous with cosolvent or surfactant or cyclodextrin, pH 4.5 Citrate Buffer 95.0 / Cremophor ELP 5.0 % w/w, read-out: Actual Solubility), 19.1 mg/mL; in data set [1] (citrate buffer, pH 4.5, aqueous with cosolvent or surfactant or cyclodextrin, pH 4.5 Citrate Buffer 95.0 / Cremophor RH40 5.0 % w/w, read-out: Actual Solubility), 19.7 mg/mL; in data set [1] (citrate buffer, pH 4.5, aqueous with cosolvent or surfactant or cyclodextrin, pH 4.5 Citrate Buffer 95.0 / Solutol HS15 5.0 % w/w, read-out: Actual Solubility), 19.8 mg/mL. Moreover, the solubility in data set [1] (citrate buffer, pH 4.5, aqueous with cosolvent or surfactant or cyclodextrin, pH 4.5 Citrate Buffer 95.0 / TPGS 5.0 % w/w, read-out: Actual Solubility) amounted to 25.9 mg/mL; in data set [1] (phosphate buffer, pH 6.8, aqueous buffer, pH 6.8 Phosphate Buffer 100% w/w, read-out: Actual Solubility), 0.06 mg/mL; in data set [1] (phosphate buffer, pH 6.8, aqueous with cosolvent or surfactant or cyclodextrin, pH 6.8 Phosphate Buffer 79.5 / PEG400 20.0 / Sodium ascorbate 0.5 % w/w, read-out: Actual Solubility) it was 0.28 mg/mL; in data set [1] (phosphate buffer, pH 6.8, aqueous with cosolvent or surfactant or cyclodextrin, pH 6.8 Phosphate Buffer 80.0 / Glycerol 20.0 % w/w, read-out: Actual Solubility), 0.07 mg/mL; in data set [1] (phosphate buffer, pH 6.8, aqueous with cosolvent or surfactant or cyclodextrin, pH 6.8 Phosphate Buffer 80.0 / Propylene glycol 20.0 % w/w, read-out: Actual Solubility) it was 0.08 mg/mL. Further, the “effect of freeze-thawing on clemizole HCl solubility” value in data set [1] (freeze-thawing) is “does not appear to reduce”. For the same molecule, the “Assay Results (%) 50° C., 14 day Mean” value in data set [2] (50° C., 14 day, mean) was found to be 100.9%. Besides, the “Assay Results (%) 50° C., 14 day” value in data set [2] (50° C., 14 day, single replicates, listed as API only, HCl) is 101.1% and 100.7%. Moreover, the “Assay Results (%) Initial Mean” value in data set [2] (Initial, mean) is listed as 100.5%. For the same molecule, the “Assay Results (%) Initial” value in data set [2] (Initial, single replicates, listed as API only, HCl) was 100.0% and 101.0%.
